How the values were obtained:
coronaviruses [1] = assay: Killing of coronaviruses on treated surfaces versus a control surface; conditions: in 2 hours
Description: 88% more coronaviruses were killed on the treated surfaces than on a control surface, also in 2 hours.

coronaviruses [2] = assay: EN 14476 (Liquid Disinfectant Test); conditions: in 2 hours

## Paramolybdotungstate [Paramolybdotungstate Mo:W 1:1]
Coronaviruses [1]
  more coronaviruses killed on treated surfaces than on a control surface: 88%
Coronaviruses [2]
  log reduction of coronaviruses: 4 log
